pIC50: −log10 of the molar value. ≈ marks a conversion by molar mass, not a printed value. Where two headings read alike, the source gives them in different places.
Columns and labels:
[1] = test system: Trichosporon beigelii 1188; experiment: In vitro antifungal broth microdilution test; type: cell-based; conditions: Trichosporon beigelii, 1188, RPMI 1640, pH 7.0, 35 °C, read-out: MIC/IC80 TB
Experimental: The broth microdilution test was used for the assessment of in vitro antifungal activity of the synthesized compounds against Candida albicans ATCC 44859 (CA), Candida tropicalis 156 (CT), Candida krusei ATCC 6258 (CK), Candida glabrata 20/I (CG), Trichosporon beigelii 1188 (TB), Aspergillus fumigatus 231 (AF), Absidia corymbifera 272 (AC), and Trichophyton mentagrophytes 445 (TM). Fluconazole (FLU) was used as the standard of a clinically used antimycotic drug. The procedure was performed with twofold dilution of the compounds in RPMI 1640 (Sevapharma a.s., Prague, Czech Republic) buffered to pH 7.0 with 0.165 mol of 3-morpholino-propane-1-sulfonic acid (MOPS, Sigma, Germany). The final concentrations of the compounds ranged from 500 to 0.975 μmol/l. Drug–free controls were included. The MIC was defined as an 80% or greater (IC80) reduction of growth in comparison with the control. The values of MICs were determined after 24 and 48 h of static incubation at 35 °C. For T. mentagrophytes, the final MICs were determined after 72 and 120 h of incubation.

Candida glabrata 20/I = experiment: In vitro antifungal broth microdilution test; type: cell-based; conditions: Nakaseomyces glabratus, 20/I
Experimental: (§1) Fluconazole (FLU) was used as the standard of a clinically used antimycotic drug. The procedure was performed with twofold dilution of the compounds in […]., Prague, Czech Republic) buffered to pH 7.0 with 0.165 mol of 3-morpholino-propane-1-sulfonic acid (MOPS, Sigma, Germany). […] Drug-free controls were included. The MIC was defined as an 80% or greater (IC80) reduction of growth in comparison with the control.

Candida tropicalis 156 = experiment: In vitro antifungal broth microdilution test; type: cell-based
Experimental: as §1

Candida krusei ATCC 6258 = experiment: In vitro antifungal broth microdilution test; type: cell-based; conditions: Pichia kudriavzevii
Experimental: as §1

[2] = test system: Aspergillus fumigatus 231; experiment: In vitro antifungal broth microdilution test; type: cell-based
Experimental: as §1

Absidia corymbifera 272 = experiment: In vitro antifungal broth microdilution test; type: cell-based
Experimental: as §1

[3] = test system: Trichophyton mentagrophytes 445; experiment: In vitro antifungal broth microdilution test; type: cell-based
Experimental: as §1

[4] = test system: Candida albicans ATCC 44859; experiment: In vitro antifungal broth microdilution test; type: cell-based; conditions: Candida albicans
Experimental: as §1

[5] = Lipophilicity HPLC determination (capacity factor k / log k); type: physicochemical; conditions: RP-HPLC, C18 column, MeOH 55.0% / H2O 45.0%, isocratic
Experimental: Hydrophobicities (log P/Clog P values) of the compounds 1-12 were calculated using two commercially available programs and also measured by means of the reversed phase high performance liquid chromatography (RP-HPLC) method for lipophilicity measurement. The procedure was performed under isocratic conditions with methanol as an organic modifier in the mobile phase using an end-capped non-polar C18 stationary RP column. The capacity factors k were determined and subsequent log k values were calculated.
The HPLC separation module Waters Alliance 2695 XE and Waters Photodiode Array Detector 2996 (Waters Corp., Milford, MA, U.S.A.) were used. A Symmetry® C18 5 μm, 4.6 × 250 mm, Part No. WAT054275, (Waters Corp., Milford, MA, U.S.A.) chromatographic column was used. The HPLC separation process was monitored by Millennium32® Chromatography Manager Software, Waters 2004 (Waters Corp., Milford, MA, U.S.A.). The mixture of MeOH p.a. (55.0%) and H2O-HPLC – Mili-Q Grade (45.0%) was used as a mobile phase. The total flow of the column was 0.9 mL/min, injection 30 μL, column temperature 30 °C and sample temperature 10 °C. The detection wavelength 210 nm was chosen. The KI methanolic solution was used for the dead time (TD) determination. Retention times (tR) were measured in minutes. The capacity factors k were calculated using the Millennium32® Chromatography Manager Software according to formula k = (tR - tD) / tD, where tR is the retention time of the solute, whereas tD denotes the dead time obtained via an unretained analyte. Log k, calculated from the capacity factor k, is used as the lipophilicity index converted to log P scale.

spinach chloroplasts = experiment: Inhibition of oxygen evolution rate (OER) / photosynthetic electron transport in spinach chloroplasts; type: biochemical, Spinacia oleracea L.; conditions: for pIC50: DCPIP photoreduction, pH 7.2
Experimental: Chloroplasts were prepared from spinach (Spinacia oleracea L.) according to Masarovicova and Kralova. The inhibition of photosynthetic electron transport (PET) in spinach chloroplasts was determined spectrophotometrically (Genesys 6, Thermo Scientific, U.S.A.) using an artificial electron acceptor 2,6-dichlorophenol-indophenol (DCPIP) according to Kralova et al. and the rate of photosynthetic electron transport was monitored as a photoreduction of DCPIP. The measurements were carried out in phosphate buffer (0.02 mol/L, pH 7.2) containing sucrose (0.4 mol/L), MgCl2 (0.005 mol/L) and NaCl (0.015 mol/L). The chlorophyll content was 30 mg/L in these experiments and the samples were irradiated (~100 W/m^2) from 10 cm distance with a halogen lamp (250 W) using a 4 cm water filter to prevent warming of the samples (suspension temperature 22 °C). The studied compounds were dissolved in DMSO due to their limited water solubility. […] The inhibitory efficiency of the studied compounds was expressed by IC50 values, i.e. by molar concentration of the compounds causing 50% decrease in the oxygen evolution rate relative to the untreated control.

[6] = 24h, RPMI 1640, pH 7.0, 35 °C, read-out: MIC/IC80 CG
[7] = 48h, RPMI 1640, pH 7.0, 35 °C, read-out: MIC/IC80 CG
[8] = Candida tropicalis, 156, 24h, RPMI 1640, pH 7.0, 35 °C, read-out: MIC/IC80 CT
[9] = Candida tropicalis, 156, 48h, RPMI 1640, pH 7.0, 35 °C, read-out: MIC/IC80 CT
[10] = ATCC6258, 24h, RPMI 1640, pH 7.0, 35 °C, read-out: MIC/IC80 CK
[11] = ATCC6258, 48h, RPMI 1640, pH 7.0, 35 °C, read-out: MIC/IC80 CK
[12] = Aspergillus fumigatus, 231, 24h, RPMI 1640, pH 7.0, 35 °C, read-out: MIC/IC80 AF
[13] = Aspergillus fumigatus, 231, 48h, RPMI 1640, pH 7.0, 35 °C, read-out: MIC/IC80 AF
[14] = Lichtheimia corymbifera, 272, 24h, RPMI 1640, pH 7.0, 35 °C, read-out: MIC/IC80 AC
[15] = Lichtheimia corymbifera, 272, 48h, RPMI 1640, pH 7.0, 35 °C, read-out: MIC/IC80 AC
[16] = Trichophyton mentagrophytes, 445, 72h, RPMI 1640, pH 7.0, 35 °C, read-out: MIC/IC80 TM
[17] = Trichophyton mentagrophytes, 445, 120h, RPMI 1640, pH 7.0, 35 °C, read-out: MIC/IC80 TM
[18] = ATCC44859, 24h, RPMI 1640, pH 7.0, 35 °C, read-out: MIC/IC80 CA
[19] = ATCC44859, 48h, RPMI 1640, pH 7.0, 35 °C, read-out: MIC/IC80 CA

SMILES	MIC ([1]; 24h) [µM]	MIC ([1]; 48h) [µM]	log k [5]	pIC50 (spinach chloroplasts)	MIC (Candida glabrata 20/I; [6]) [µM]	MIC (Candida glabrata 20/I; [7]) [µM]	MIC (Candida tropicalis 156; [8]) [µM]	MIC (Candida tropicalis 156; [9]) [µM]	MIC (Candida krusei ATCC 6258; [10]) [µM]	MIC (Candida krusei ATCC 6258; [11]) [µM]	MIC [2, 12] [µM]	MIC [2, 13] [µM]	MIC (Absidia corymbifera 272; [14]) [µM]	MIC (Absidia corymbifera 272; [15]) [µM]	MIC [3, 16] [µM]	MIC [3, 17] [µM]	MIC [4, 18] [µM]	MIC [4, 19] [µM]	also measured
O=c1cc(O)c2ccccc2[nH]1 [Compound 1, 4-Hydroxyquinolin-2(1H)-one]	> 500	> 500	0.0664	3.03	–	–	–	–	–	–	–	–	–	–	–	–	–	–	MIC (Candida glabrata 20/I; 24 h, pH 7, read-out: MIC/IC80 CG): > 500 µM; MIC (Candida glabrata 20/I; 48 h, pH 7, read-out: MIC/IC80 CG): > 500 µM; MIC (Candida tropicalis 156; Candida tropicalis, 156, 24 h, pH 7, read-out: MIC/IC80 CT): > 500 µM; MIC (Candida tropicalis 156; Candida tropicalis, 156, 48 h, pH 7, read-out: MIC/IC80 CT): > 500 µM; MIC (Candida krusei ATCC 6258; ATCC6258, 24 h, pH 7, read-out: MIC/IC80 CK): > 500 µM; MIC (Candida krusei ATCC 6258; ATCC6258, 48 h, pH 7, read-out: MIC/IC80 CK): > 500 µM; MIC ([2]; Aspergillus fumigatus, 231, 24 h, pH 7, read-out: MIC/IC80 AF): > 500 µM; MIC ([2]; Aspergillus fumigatus, 231, 48 h, pH 7, read-out: MIC/IC80 AF): > 500 µM; MIC (Absidia corymbifera 272; Lichtheimia corymbifera, 272, 24 h, pH 7, read-out: MIC/IC80 AC): > 500 µM; MIC (Absidia corymbifera 272; Lichtheimia corymbifera, 272, 48 h, pH 7, read-out: MIC/IC80 AC): > 500 µM; MIC ([3]; Trichophyton mentagrophytes, 445, 72 h, pH 7, read-out: MIC/IC80 TM): > 500 µM; MIC ([3]; Trichophyton mentagrophytes, 445, 120 h, pH 7, read-out: MIC/IC80 TM): > 500 µM; MIC ([4]; ATCC44859, 24 h, pH 7, read-out: MIC/IC80 CA): > 500 µM; MIC ([4]; ATCC44859, 48 h, pH 7, read-out: MIC/IC80 CA): > 500 µM
Cc1ccc2[nH]c(=O)cc(O)c2c1 [Compound 2, 4-Hydroxy-6-methylquinolin-2(1H)-one]	> 500	> 500	0.3307	3.80	> 500	> 500	> 500	> 500	> 500	> 500	> 500	> 500	> 500	> 500	> 500	> 500	> 500	> 500	–
O=C(O)c1ccc2[nH]c(=O)cc(O)c2c1O [Compound 3, 4,5-Dihydroxy-2-oxo-1,2-dihydroquinoline-6-carboxylic acid]	250 (≈ 55.3 µg/mL)	> 500	0.0002	3.46	250 (≈ 55.3 µg/mL)	250 (≈ 55.3 µg/mL)	500 (≈ 111 µg/mL)	> 500	> 500	> 500	> 500	> 500	> 500	> 500	> 500	> 500	125 (≈ 27.6 µg/mL)	125 (≈ 27.6 µg/mL)	–
O=c1[nH]c2ccccc2c(O)c1[N+](=O)[O-] [Compound 5, 4-Hydroxy-3-nitroquinolin-2(1H)-one]	> 500	> 500	0.4052	3.29	> 500	> 500	> 500	> 500	> 500	> 500	> 500	> 500	> 500	> 500	> 500	> 500	> 500	> 500	OER inhibition effectiveness relative to compound 1 (spinach chloroplasts): approximately twice as effective as compound 1
Nc1c(O)c2ccccc2[nH]c1=O [Compound 6, 3-Amino-4-hydroxyquinolin-2(1H)-one]	> 500	> 500	0.0004	3.11	> 500	> 500	> 500	> 500	> 500	> 500	> 500	> 500	> 500	> 500	> 500	> 500	> 500	> 500	–
O=C(/C=C/c1ccccc1)Nc1c(O)c2ccccc2[nH]c1=O [Compound 7, (2E)-N-(4-Hydroxy-2-oxo-1,2-dihydroquinolin-3-yl)-3-phenylprop-2-enamide]	> 125	> 125	0.0128	3.04	> 125	> 125	> 125	> 125	> 125	> 125	> 125	> 125	> 125	> 125	> 125	> 125	> 125	> 125	–
OC(Cn1cncn1)(Cn1cncn1)c1ccc(F)cc1F [FLU, Fluconazole, reference compound]	0.24 (≈ 0.0735 µg/mL)	0.48 (≈ 0.147 µg/mL)	–	–	0.98 (≈ 0.3 µg/mL)	3.91 (≈ 1.2 µg/mL)	0.12 (≈ 0.0368 µg/mL)	> 125	3.91 (≈ 1.2 µg/mL)	15.6 (≈ 4.78 µg/mL)	> 125	> 125	> 125	> 125	1.95 (≈ 0.597 µg/mL)	3.91 (≈ 1.2 µg/mL)	0.06 (≈ 0.0184 µg/mL)	0.12 (≈ 0.0368 µg/mL)	–
